Assay results published in US20020155496A1, “Saturated and unsaturated abietane derivatives, derived conjugates and uses in a diagnostic composition, a reagent and a device” (priority 1998, published 2002).

System: anti-abietic acid antibody
Experiment: Competition ELISA assay with natural hormones (crossreaction of anti-abietic acid antibody)
Type: binding, mouse
Conditions: for inhibition / crossreaction in competition ELISA: increasing concentrations of hormone in 5 μg/ml anti-abietic acid antibody, abietic acid-ODN antigen phase, read at 492 nm
Description: The antigen phase was obtained as described in Example 11, and then increasing concentrations of hormone dissolved in a 5 μg/ml solution of anti-abietic acid antibody in PBS-Tween containing 10% by volume of horse serum are incubated for one hour at 37° C. After washes with PBS-Tween, an anti-mouse antibody antibody coupled to peroxidase, in solution in PBS-Tween-horse [lacuna] is incubated for one hour at 37° C. After washes, the enzymatic substrate, o-phenylenediamine, is added. The colorimetric reaction is stopped by adding 1N sulfuric acid. The intensity of the coloration is read at 492 nm on a bioMérieux Axia Micro-reader.

SMILES | inhibition / crossreaction in competition ELISA | inhibition (concentration of 0.33 μmol/ml of hormone) [%]
C[C@]12CC[C@H]3[C@@H](CCC4=CC(=O)CC[C@@]43C)[C@@H]1CC[C@@H]2O [testosterone] | no inhibition | 
CC(=O)[C@H]1CC[C@H]2[C@@H]3CCC4=CC(=O)CC[C@]4(C)[C@H]3CC[C@]12C [progesterone] | no inhibition | 
N[C@@H](Cc1cc(I)c(Oc2cc(I)c(O)c(I)c2)c(I)c1)C(=O)O [Example T4] | crossreaction is observed | 25
